Test results published in patent US20260007727A1, “DRUG THAT PROMOTES HEMOSTASIS” (BIOMEDIZINISCHE FORSCHUNG & BIO-PRODUKTE GMBH, priority 2022, published 2026).
Where “and” joins values, the source holds several entries; their conditions need not be identical. Equal entries are not always repeated.

Test system: rivaroxaban rabbit model
Assay: reversal of anticoagulation in a rivaroxaban rabbit model (claw cut)
Type: in vivo, New Zealand White rabbits
Method: In doing so, anesthetized New Zealand White rabbits were treated with the factor Xa inhibitor rivaroxaban to achieve anticoagulation. The increased tendency to bleed associated with anticoagulation was determined by cutting the claws. Upon intravenous administration of prethrombin-1, the blood loss was measured again after the claws had been cut.

## O=C(NC[C@H]1CN(c2ccc(N3CCOCC3=O)cc2)C(=O)O1)c1ccc(Cl)s1 [rivaroxaban]
Rivaroxaban 7 μg/kg body weight
  Blood loss after rivaroxaban: 22.3 mg
Rivaroxaban 14 μg/kg body weight
  Blood loss after rivaroxaban: 11.3 mg
Rivaroxaban 35 μg/kg body weight
  Blood loss after rivaroxaban: 30.4 mg
Rivaroxaban 70 μg/kg body weight, individual rabbits
  Blood loss after rivaroxaban: 165.0 mg and 98.7 mg and 20.8 mg and 51.8 mg and 77.4 mg and 108.5 mg and 51.2 mg
